This note sets out measurements from patent publication US20190030009A1, “COMPOUNDS AND COMPOSITIONS FOR THE TREATMENT OF CRYPTOSPORIDIOSIS” (Novartis AG, priority 2016, published 2019).

Series [1] in a line: Cytotoxicity against HepG2. It is filed as cell-based. The following applies: human, HepG2 cells (ATCC HB-8065), 5 days exposure. On the procedure:
Cytotoxicity against HepG2 (ATCC# HB-8065), a human liver cancer cell line, was determined as previously described earlier (Manjunatha et al., 2015). Briefly, cells were seeded at a density of 10^5 cells per well, incubated at 37° C. for 24 h and exposed to two-fold serially-diluted compounds for 5 days. Cell viability was monitored using the Cell Proliferation Kit II (Invitrogen). The cytotoxicity values of selected compounds are reported in the fifth column [HepG2 CC50 (μM)] of Table II.

The target in a further series is C. parvum PI(4)K (Cryptosporidium parvum, UniProt Q5CVD3). As to the kind of experiment: CpPI(4)K enzymatic assay (Transcreener ADP2 FP). It is filed as biochemical. From the text: The full-length coding sequence of C. parvum PI(4)K (cgd8_4500, 1114 amino acids) was codon-optimized for baculovirus expression, synthesized and cloned into pFastBac-HTb (Invitrogen 10584-027) in frame with the amino-terminal polyhistidine tag using the BamHI and Hindlll restriction sites. Recombinant pFastBacHTb-CpPI(4)K bacmid clones were generated by site-specific transposition in E. coli DH10Bac (Invitrogen 10361-012). The bacmid sequence was confirmed by direct DNA sequencing to confirm a lack of mutations across the whole gene. The subsequent steps for bacmid isolation, transfection and selection of the recombinant viruses were performed according to the manufacturer's protocol (Bac-to-Bac system #10359, Invitrogen).
C. parvum PI(4)K, sequence (Q5CVD3 entry or part of it): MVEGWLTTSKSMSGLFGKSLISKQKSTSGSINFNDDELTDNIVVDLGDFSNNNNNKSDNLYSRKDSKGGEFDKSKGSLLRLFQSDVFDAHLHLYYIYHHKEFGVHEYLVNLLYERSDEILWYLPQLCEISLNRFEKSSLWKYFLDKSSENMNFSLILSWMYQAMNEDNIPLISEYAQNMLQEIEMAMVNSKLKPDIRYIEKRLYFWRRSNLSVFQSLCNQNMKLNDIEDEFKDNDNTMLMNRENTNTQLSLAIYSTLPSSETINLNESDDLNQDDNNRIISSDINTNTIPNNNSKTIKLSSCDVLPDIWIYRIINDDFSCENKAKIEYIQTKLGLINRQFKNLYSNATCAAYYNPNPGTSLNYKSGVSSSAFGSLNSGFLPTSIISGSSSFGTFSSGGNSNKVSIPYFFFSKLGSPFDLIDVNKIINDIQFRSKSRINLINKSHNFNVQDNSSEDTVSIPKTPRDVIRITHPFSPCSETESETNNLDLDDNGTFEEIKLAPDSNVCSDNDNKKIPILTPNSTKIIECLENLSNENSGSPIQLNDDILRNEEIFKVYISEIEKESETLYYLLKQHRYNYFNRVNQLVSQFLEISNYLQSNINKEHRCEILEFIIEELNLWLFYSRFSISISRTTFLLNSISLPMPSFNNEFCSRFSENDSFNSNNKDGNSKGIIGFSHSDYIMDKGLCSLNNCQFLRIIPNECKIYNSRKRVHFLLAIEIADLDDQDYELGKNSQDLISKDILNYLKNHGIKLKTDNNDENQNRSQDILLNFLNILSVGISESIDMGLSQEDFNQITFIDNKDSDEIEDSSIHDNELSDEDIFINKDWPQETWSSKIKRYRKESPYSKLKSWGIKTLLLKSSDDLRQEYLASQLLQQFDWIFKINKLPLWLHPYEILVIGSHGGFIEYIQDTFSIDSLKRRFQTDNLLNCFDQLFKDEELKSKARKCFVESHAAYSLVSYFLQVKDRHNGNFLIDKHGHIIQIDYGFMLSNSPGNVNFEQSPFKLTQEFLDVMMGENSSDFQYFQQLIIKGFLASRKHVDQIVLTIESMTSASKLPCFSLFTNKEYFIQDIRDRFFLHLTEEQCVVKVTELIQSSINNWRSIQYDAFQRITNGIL
SF9 cells, cultured in SF-900 III serum-free medium, were transfected with recombinant baculovirus at 1/200 (v/v) and incubated at 27° C. for 72 h. The pellets were collected after centrifugation and re-suspended in cell lysis buffer (20 mM Tris-HCl, pH 7.5, 300 mM NaCl, 1 mM DTT, 20 mM imidazole, 0.01% Triton X-100 and 1× complete protease inhibitor cocktail without EDTA (Roche Diagnostics 04693116001)). The cell suspension was lysed by sonication and the clarified supernatant was loaded onto a 1 ml HisTrap affinity column (GE Healthcare) pre-equilibrated with buffer A (20 mM Tris-HCl, pH 7.5, 300 mM NaCl, 1 mM DTT, 20 mM Imidazole, and 1× complete protease inhibitor cocktail without EDTA). The column was washed with buffer B (buffer A containing 45 mM imidazole) and the bound protein of interest was eluted with buffer C (buffer A with 90 mM imidazole). The fractions containing CpPI(4)K were pooled, concentrated using Amicon Ultra-15 and purified by a gel-filtration column (Hi-Load 26/60 Superdex 200, GE Healthcare) equilibrated with 20 mM Tris, pH 7.5, 300 mM NaCl, 1 mM DTT and 1× protease inhibitor cocktail without EDTA. The concentrations of the purified protein (Mw 132.39 kda) was determined by using the protein molar extinction coefficient (ε280 nm=133,810 M^−1 cm^−1). Aliquots were flash frozen in liquid nitrogen and immediately stored at −80° C.
The CpPI(4)K enzymatic assay was performed as described earlier with a some modifications (McNamara et al., 2013). Briefly, L-α-phosphatidylinositol (Avanti Polar Lipid 840046), dissolved in 3% n-octylglucoside (Roche Diagnostics 10634425001), was used as the lipid substrate for the PI(4)K activity assay. CpPI(4)K was assayed using Transcreener ADP2 FP detection kit (BellBrook 3010) in a black, solid 384-well plate (Corning 3575). The final assay volume was 10 μl and contained 3 nM of the respective CpPI(4)K construct in 10 mM Tris, pH 7.5, 1 mM DTT, 3 μM ATP, 5 mM Mn2+, 0.05% Triton X-100 and 10 μM phosphatidylinositol/octylglucoside. The enzyme reaction was performed for 50 minutes at room temperature and was stopped by adding 10 μl of detection mix containing 1× stop buffer (50 mM HEPES, pH7.5, 400 mM NaCl, 20 mM EDTA, and 0.02% Brij-35), 2 nM AMP Alexa Fluor 633 tracer, and 20 μg ml^−1 ADP antibody. Fluorescence polarization measurements were performed on the Infinite M1000 plate reader (Tecan) with λex=635 nm and λem=680 nm (20-nm bandwidth). IC50 values were calculated using Graphpad Prism software.
The inhibitory concentration (IC50) of selected compounds on the C. parvPI(4)K activity is provided in the third column [Cp_PI4K_enz IC50 (μM)] of Table II.

A further series relates to Cryptosporidium parvum. In words: Cytopathic effect (CPE) based assay, C. parvum infected HCT-8 cells. The following applies: HCT-8 host cell viability (CellTiter-Glo), 48 hours treatment, read-out: Cp CPE EC50. A digest of the protocol:
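HCT-8 cells were batch-infected with excysted C. parvum (Iowa isolate) oocysts at MOI 1:2 (host:parasite) for 3 h at 37 °C, then seeded and incubated 24 h before compound addition. Compounds were given as 3-fold dilution series (final DMSO <0.5%). Host-cell loss (cytopathic effect) was read as viability with CellTiter-Glo.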
On the technique in general: Cytopathic effects are the visible damage that an infection or toxin causes in cultured cells.

A further series has as its system C. parvum. In words: High content imaging assay, C. parvum infected HCT-8 cells. It counts as cell-based. The following applies: Cryptosporidium parvum, percentage of infected HCT-8 cells, 48 hours treatment, read-out: Cp HCl IC50. On the procedure:
(§1) Human ileocecal colorectal adenocarcinoma cells (HCT-8 [HRT-18] ATCC, CCL-34) were maintained in T-175 flasks (Corning, 431080) in complete growth medium (RPMI-1640 medium (Gibco, 11875) supplemented with 10% heat-inactivated horse serum (Gibco, 26050), 1×MEM non-essential amino acids (Gibco, 11140), 10 mM HEPES (Gibco, 15630), 100 units/mL penicillin, and 100 units/mL streptomycin) at 37° C. and 5% CO2 in a humidified incubator. Cultures were passaged twice weekly using 10 mL of 1×Phosphate-Buffered Saline (PBS) without Ca^2+ and Mg^2+ (Gibco, 20012) for washing and 3-5 mL per T-175 flask of TrypLE Express Enzyme (Gibco, 12604) for dissociation of adherent cells.
Cryptosporidium parvum oocysts purchased from the Sterling Laboratory, University of Arizona (Iowa isolate) were purified from infected calf feces using discontinuous sucrose and cesium chloride centrifugation gradients and stored in PBS solution containing 0.01% Tween 20, 100 units/mL penicillin and 100 units/mL gentamicin.
(§2) Excystation and infection protocols were developed following established methods with some modifications (Gut & Nelson, 1999, Upton et aL, 1995, Bessoff et aL, 2013). Briefly, oocysts were primed in 1 mL of 10 mM hydrochloric acid in 1× Hank's Balanced Salt Solution (HBSS) (Gibco, 14025) for 10 minutes with agitation at 1000 rpm, 37° C. on an Eppendorf thermomixer, then washed twice with 1 mL of room temperature non-acidic 1× HBSS by centrifugation at 13,000 rpm for 3 minutes at 25° C. Primed oocysts were further excysted at a concentration of 1×10^6 oocysts/μL in parasite infection medium consisting of a pre-warmed and pre-gassed 1:1 formulation of Leibovitz's L-15 medium (Gibco, 11415) and UltraCULTURE medium (Lonza, 12-725F) supplemented with 2 mM sodium taurocholate (Sigma, 86339-1), 10% heat-inactivated horse serum, and 200 μM L-ascorbic acid (Sigma, 95210) at 25° C. for 10 minutes. HCT-8 monolayer cells were infected with excysted cryptosporidium at a specified multiplicity of infection (MOI). All dilutions for subsequent assays were performed in parasite infection medium without sodium taurocholate. Pre-excysted oocysts were enumerated microscopically using a C-Chip disposable hemocytometer (NanoEnTek, DHC-N01).
(§3) Compound powders were dissolved in neat DMSO (Fisher, D4121) to 10 mM and stored at 4° C. prior to dilution into source plates. Dilutions were carried out using a Microlab STAR liquid handler (Hamilton) to obtain compound source plates containing the ten-point or eight-point three fold dilutions starting from 10 mM in duplicates. Source plates were stored at 4° C. prior to spotting into assay plates. Before administration, all compound source plates were equilibrated to room temperature. A specified volume of compounds from source plate were spotted to assay plate using an Echo Acoustic liquid handler (LABCYTE, 550) so that the final DMSO concentration was less than 0.5%. Each assay plate a specified number of DMSO-treated negative control wells and a well-studied potent active compound at 100 nM as positive control. As a quality control, all positive and negative-control wells were used to calculate a Z′-value and signal to noise ratio (S:N) for each plate.
Imaging assays were developed following established Cryptosporidium spp labeling and in vitro infection models with some modifications (Bessoff et aL, 2013, Gut & Nelson, 1999). Briefly, 2×10^4 HCT-8 cells per well were seeded into 384-well, flat black clear-bottom OPERA assay plates (Greiner, 789071-G) at 20 μL per well in complete growth medium using a Multidrop Combi liquid handler (ThermoScientific, 5840300) and standard tube dispensing cassette (ThermoScientific, 24072670) and incubated for 24 hours at 37° C. The HCT-8 cells were infected with 10 μL per well of 1×10^4 excysted C. parvum oocysts (host to parasite MOI of 1:0.5) or 10 μL per well of 4×10^4 excysted C. hominis oocysts (MOI 1:2) in parasite infection medium using the Multidrop and incubated at 37° C. […]

The subject of the next series is Cryptosporidium hominis. As to the kind of experiment: Cytopathic effect (CPE) based assay, C. hominis infected HCT-8 cells. The following applies: HCT-8 host cell viability (CellTiter-Glo), 48 hours treatment, read-out: Ch CPE EC50. As to the method:
as §1
Cryptosporidium hominis oocysts were purchased from the Tufts University Cummings School of Veterinary Medicine (courtesy of Dr. Saul Tzipori). C. hominis oocysts were purified from infected gnotobiotic piglet feces and stored in PBS solution containing 0.01% Tween-20, 100 units/mL penicillin and 100 units/mL gentamicin. C. parvum and C. hominis oocysts less than three months old from the date of shedding were used in infection experiments.
as §2, §3
Cryptosporidium spp are obligate-intracellular parasites that infect intestinal epithelial cells and the host cell is killed upon parasite egress. […] The loss of epithelial cells is due to both rapid parasite invasion/multiplication/egress and also pro-inflammatory immune response (Adams et al., 1994, Griffiths et al., 1994). We have observed a consistent cytopathic effect (CPE) in HCT-8 cells with C. spp infection the loss of viability of the host cells using CellTiter-Glo reagent.
Confluent HCT-8 cells in T-175 flasks were directly infected with excysted oocysts at an MOI (host to parasite) of 1:2 for C. parvum and 1:4 for C. hominis. […]

One may read the CC50 as the concentration at which the toxic effect on the cells reaches its halfway point. A higher CC50 goes with lower toxicity to the cells. As usually defined, the IC50 is the concentration needed to halve the response being measured. As usually defined, the EC50 is the concentration giving half of the maximal effect.

The compound `CN(C(=O)c1ccn2ncc(-c3ccc(C(N)=O)cc3)c2c1)c1ccc(C#N)cc1` [Example 19] returned a half-maximal cytotoxic concentration (CC50) at 5 days in series [1] of 5910 nM. On C. parvum PI(4)K, the IC50 is 3 nM. Moreover, the half-maximal effective concentration (EC50) in the series with Cryptosporidium parvum came to 37 nM.
`CN(C(=O)c1ccn2ncc(-c3ccc(C(N)=O)cn3)c2c1)c1ccc(C#N)cc1` [Example 27] displayed an IC50 on C. parvum PI(4)K of 140 nM. In addition, the half-maximal effective concentration (EC50) in the series with Cryptosporidium parvum amounted to 815 nM.
In series [1], `CN(C(=O)c1ccn2ncc(-c3ccc(C(N)=O)cc3)c2c1)c1ccc(C#N)cn1` [Example 32] came in with a CC50 at 5 days of 15800 nM. The IC50 with C. parvum was determined as 58 nM. In addition, the EC50 in the series on Cryptosporidium parvum came to 93 nM; with Cryptosporidium hominis it was 119 nM.
Take `CC(C)[C@H](N)C(=O)Nc1ccc(-c2cnn3ccc(C(=O)N(C)c4ccc(C#N)cc4)cc23)cc1` [Example 45]: the IC50 against C. parvum PI(4)K came out at 239 nM. In addition, the EC50 in the series on Cryptosporidium parvum is 332 nM.
Regarding `CN(C(=O)c1ccn2ncc(-c3cnc4[nH]ccc4c3)c2c1)c1ccc(C#N)cn1` [Example 53], half-maximal inhibition against C. parvum PI(4)K (IC50) required 47 nM. Moreover, the EC50 in the series with Cryptosporidium parvum is 550 nM.
The compound `CN(C(=O)c1ccn2ncc(-c3ccc(N)nc3)c2c1)c1ccc(C#N)cn1` [Example 54] showed a half-maximal cytotoxic concentration (CC50) at 5 days in series [1] greater than 50000 nM. Further, the IC50 against C. parvum PI(4)K was determined as 74 nM. Also, in the series with Cryptosporidium parvum, the EC50 was 324 nM.
In series [1], `CC(Cn1cccn1)N(C(=O)c1ccn2ncc(-c3ccc(C(N)=O)cc3)c2c1)c1ccc(C#N)cn1` (stereo not shown) [Example 77] had a CC50 at 5 days of 29300 nM. On C. parvum PI(4)K, this compound registered an IC50 of 50 nM. In addition, the EC50 in the series on Cryptosporidium parvum came out at 582 nM.
The like results for `CNC(=O)c1ccc(-c2cnn3ccc(C(=O)N(C)c4ccc(C#N)cc4)cc23)cn1` [Example 97] were, in that order, 31100 nM, 73 nM and 241 nM.
On to `CNC(=O)c1ccc(-c2cnn3ccc(C(=O)N(C)c4ccc(C(F)(F)F)cc4)cc23)cc1` [Example 103], for which the CC50 at 5 days in series [1] worked out at 8060 nM. Also, the IC50 in the series on C. parvum was 8 nM. Moreover, the EC50 with Cryptosporidium parvum stood at 7 nM.
Compound `CNC(=O)c1ccc(-c2cnn3ccc(C(=O)N(CC4CC4)c4ccc(C#N)cn4)cc23)cc1` [Example 117] returned a CC50 at 5 days in series [1] of 4330 nM. Further, inhibition at C. parvum PI(4)K was half-maximal at 7 nM (IC50). Besides, the EC50 in the series on Cryptosporidium parvum is 505 nM.
Compound `CNC(=O)c1ccc(-c2cnn3ccc(C(=O)N(c4ccc(C#N)cn4)C(C)(C)C)cc23)cc1` [Example 119] displayed a CC50 at 5 days in series [1] of 20100 nM. Also, the EC50 in the series on Cryptosporidium parvum is 1930 nM; in the series with Cryptosporidium hominis it was 1940 nM.
For `CNC(=O)c1ccc(-c2cnn3ccc(C(=O)N(c4ccc(C#N)cn4)C4CCCC4)cc23)cc1` [Example 126], in series [1], the CC50 at 5 days came out at 22100 nM. On C. parvum PI(4)K, this compound had an IC50 of 71 nM. For the same compound, the EC50 in the series on Cryptosporidium parvum was 410 nM.
